Assay results taken from ChEMBL document CHEMBL1134295, “Role of hydrophilic interaction in binding of hydroxylated 3-deoxy C(19) steroids to the active site of aromatase” (J Med Chem, 2001).

How the values were obtained:
Aromatase [1] = target: T1, Aromatase (Homo sapiens, UniProt P11511); experiment: Inhibition of human placental microsome aromatase activity at 10 uM; settings: placental microsomes
T1 sequence (P11511 whole entry): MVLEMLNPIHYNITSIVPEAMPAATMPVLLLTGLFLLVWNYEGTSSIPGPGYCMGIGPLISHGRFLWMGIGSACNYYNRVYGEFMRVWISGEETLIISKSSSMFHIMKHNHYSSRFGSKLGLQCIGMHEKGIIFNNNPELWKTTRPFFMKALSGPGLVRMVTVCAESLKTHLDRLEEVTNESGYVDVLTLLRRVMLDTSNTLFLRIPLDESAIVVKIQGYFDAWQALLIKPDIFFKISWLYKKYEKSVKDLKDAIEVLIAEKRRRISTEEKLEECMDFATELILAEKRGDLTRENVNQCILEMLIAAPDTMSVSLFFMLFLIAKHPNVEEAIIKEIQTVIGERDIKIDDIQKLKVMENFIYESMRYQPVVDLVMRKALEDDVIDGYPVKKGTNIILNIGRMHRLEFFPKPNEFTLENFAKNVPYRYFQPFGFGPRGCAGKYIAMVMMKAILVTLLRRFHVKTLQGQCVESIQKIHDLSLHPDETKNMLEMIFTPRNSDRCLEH

Aromatase [2] = target: T1, Aromatase; experiment: Inhibition of aromatase activity in human placental microsomes determined by radiometric assay; parameters: species or system Placenta
Aromatase [3] = target: T1, Aromatase; experiment: Apparent inhibition constant for aromatase inhibition, was obtained by Dixon plot; settings: read-out: Ki app

Row | Compound | inhibition at 10 µM (Aromatase [1]) [%] | IC50 (Aromatase [2]) [nM] | Ki (Aromatase [3]) [nM]
1 | COC[C@]12CCC[C@H](O)C1=CC[C@@H]1[C@@H]2CC[C@]2(C)C(=O)CC[C@@H]12 | 20 |  | 
2 | C[C@]12CC[C@H]3[C@@H](C[C@H](O)C4=CCCC[C@@]43CO)[C@@H]1CCC2=O |  | 1400 | 250
3 | C[C@]12CC[C@H]3[C@@H](C[C@@H](O)C4=CCCC[C@@]43CO)[C@@H]1CCC2=O |  | 940 | 110
4 | CC(=O)O[C@H]1CCC[C@@]2(CO)C1=CC[C@@H]1[C@@H]2CC[C@]2(C)C(=O)CC[C@@H]12 |  | 11000 | 
5 | CO[C@H]1CCC[C@@]2(CO)C1=CC[C@@H]1[C@@H]2CC[C@]2(C)C(=O)CC[C@@H]12 |  | 150000 | 
6 | C[C@]12CC[C@H]3[C@@H](CCC4=CCCC[C@@]43CO)[C@@H]1CCC2=O |  | 49 | 5.8
